# Source: patent US12404283B2, “c-MYC mRNA translation modulators and uses thereof in the treatment of cancer” (Anima Biotech Inc., priority 2022, dated 2025)
# Counter-ions that a name gives are not always drawn.
# Test system: c-Myc
# Experiment: c-Myc immunofluorescence assay
# Assay type: cell-based, human
# Conditions: A549 cells, 24 hours treatment, anti-c-Myc immunofluorescence
# How it was run: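 High-content imaging (20×) of PFA-fixed A549 cells immunostained for c-Myc with DAPI nuclei, after 24 h compound treatment at increasing concentrations. Per-cell c-Myc signal in identified cell regions was plotted against dose and fitted by logistic regression to give EC50.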
row,Compound,Myc Efficacy (−LogEC50)
1,"CCN(CC)CCCNC(=O)c1ccc2c(c1)sc1nc(-c3cccc(Cl)c3)cn12 [compound 131, 2-(3-chlorophenyl)-N-(3-(diethylamino)propyl)benzo [d]imidazo[2,1-b]thiazole-7-carboxamide]",++ (++ ≥5 and <6)
2,"CNC(=O)c1ccc(-c2cn3c(n2)sc2cc(C(=O)NCCCOC)ccc23)cc1 [compound 189, N-(3-methoxypropyl)-2-(4-(methylcarbamoyl)phenyl) benzo[d]imidazo[2,1-b]thiazole-7-carboxamide]",− (− ≤3)
3,"CNC(=O)c1ccc(-c2cn3c(n2)sc2cc(C(=O)NC4CN(C)C4)ccc23)cc1 [compound 198, N-(1-methylazetidin-3-yl)-2-(4-(methylcarbamoyl)phenyl) benzo[d]imidazo[2,1-b]thiazole-7-carboxamide]",+ (+ >3 and <5)
4,"CCN(CC)CCCN(C)C(=O)c1ccc2c(c1)sc1nc(-c3ccc(C(=O)NC)cc3F)cn12 [compound 333, N-(3-(diethylamino)propyl)-2-(2-fluoro-4-(methylcarbamoyl)phenyl)-N-methylbenzo[d]imidazo[2,1-b]thiazole-7-carboxamide]",+ (+ >3 and <5)
5,"Cc1cccc(-c2cn3c(n2)sc2cc(C(=O)NCCCN4CCC(F)CC4)ccc23)c1 [compound 137, N-(3-(4-fluoropiperidin-1-yl)propyl)-2-(m-tolyl)benzo[d]imidazo[2,1-b]thiazole-7-carboxamide]",++ (++ ≥5 and <6)
6,"CNC(=O)c1ccc(-c2cn3c(n2)sc2cc(C(=O)NC4CC5(CNC5)C4)ccc23)cc1 [compound 241, 2-(4-(methylcarbamoyl)phenyl)-N-(2-azaspiro[3.3]heptan-6-yl)benzo[d]imidazo[2,1-b] thiazole-7-carboxamide]",+ (+ >3 and <5)
7,"CNC(=O)c1ccc(-c2cn3c(n2)sc2cc(C(=O)NC4CCCC(N)C4)ccc23)cc1 (centres unmarked) [compound 270, N-(3-aminocyclohexyl)-2-(4-(methylcarbamoyl)phenyl) benzo[d]imidazo[2,1-b]thiazole-7-carboxamide]",+ (+ >3 and <5)
8,"CNC(=O)c1ccc(-c2cn3c(n2)sc2cc(C(=O)NCC(C)(C)N4CCOCC4)ccc23)cc1 [compound 244, N-(2-methyl-2-morpholinopropyl)-2-(4-(methylcarbamoyl)phenyl) benzo[d]imidazo[2,1-b] thiazole-7-carboxamide]",− (− ≤3)
9,"O=C(NCCCN1CCC(F)CC1)c1ccc2c(c1)sc1nc(-c3ccc(C4CC(O)CN4)cc3F)cn12 (centres unmarked) [Compound 493, 2-(2-fluoro-4-(4-hydroxypyrrolidin-2-yl)phenyl)-N-(3-(4-fluoropiperidin-1-yl)propyl)benzo[d]imidazo[2,1-b]thiazole-7-carboxamide]",+++ (+++ ≥6)
10,"CCN(CC)CCCNC(=O)c1ccc2c(c1)sc1nc(-c3cccc(C(=O)NC)c3)cn12 [compound 167, N-(3-(diethylamino)propyl)-2-(3-(methylcarbamoyl)phenyl) benzo[d]imidazo[2,1-b]thiazole-7-carboxamide]",+ (+ >3 and <5)
11,"CCN(CC)CCCNC(=O)c1ccc2c(c1)sc1nc(-c3cccc(N4CCCC4)c3)cn12 [compound 171, N-(3-(diethylamino)propyl)-2-(3-(pyrrolidin-1-yl)phenyl)benzo[d]imidazo [2,1-b]thiazole-7-carboxamide]",++ (++ ≥5 and <6)
12,"Cc1cc(-c2cn3c(n2)sc2cc(C(=O)NCCCN4CCC(F)CC4)ccc23)ccn1 [compound 495, N-(3-(4-fluoropiperidin-1-yl)propyl)-2-(2-methylpyridin-4-yl)benzo[d]imidazo[2,1-b]thiazole-7-carboxamide]",+++ (+++ ≥6)
13,"O=C1CC[C@H](c2ccc(-c3cn4c(n3)sc3cc(C(=O)NCCCN5CCC(F)CC5)ccc34)c(F)c2)N1 [Compound 432R, (R)-2-(2-fluoro-4-(5-oxopyrrolidin-2-yl)phenyl)-N-(3-(4-fluoropiperidin-1-yl)propyl)benzo[d]imidazo[2,1-b]thiazole-7-carboxamide]",+++ (+++ ≥6)
14,"CCN(CC)CCCNC(=O)c1ccc2c(c1)sc1nc(-c3cccc(-c4ccccc4)c3)cn12 [compound 153, 2-([1,1′-biphenyl]-3-yl)-N-(3-(diethylamino)propyl)benzo [d]imidazo[2,1-b]thiazole-7-carboxamide]",+ (+ >3 and <5)
15,"CNC(=O)c1ccc(-c2cn3c(n2)sc2cc(C(=O)NCC4(N(C)C)CCCCC4)ccc23)cc1 [compound 216, N-((1-(dimethylamino)cyclohexyl)methyl)-2-(4-(methylcarbamoyl)phenyl) benzo[d]imidazo[2,1-b]thiazole-7-carboxamide]",+ (+ >3 and <5)
16,"CNC(=O)c1ccc(-c2cn3c(n2)sc2cc(C(=O)NCC4CC5(CC5)CN4)ccc23)cc1 (centres unmarked) [compound 279, N-((5-azaspiro[2.4]heptan-6-yl)methyl)-2-(4-(methylcarbamoyl)phenyl) benzo[d]imidazo[2,1-b]thiazole-7-carboxamide]",− (− ≤3)

row,Compound,Myc Efficacy (−LogEC50)
1,"CNC(=O)c1ccc(-c2cn3c(n2)sc2cc(C(=O)NC4CC(=O)N(C)C4)ccc23)cc1 (centres unmarked) [compound 236, N-(1-methyl-5-oxopyrrolidin-3-yl)-2-(4-(methylcarbamoyl)phenyl) benzo[d]imidazo[2,1-b]thiazole-7-carboxamide]",− (− ≤3)
2,"CCN1CCC[C@H]1CNC(=O)c1ccc2c(c1)sc1nc(-c3cccc(OC)c3)cn12 [compound 119, (S)-N-((1-ethylpyrrolidin-2-yl)methyl)-2-(3-methoxyphenyl)benzo[d] imidazo[2,1-b]thiazole-7-carboxamide]",++ (++ ≥5 and <6)
3,"CNC(=O)c1ccc(-c2cn3c(n2)sc2cc(C(=O)NCC4CC5(CNC5)C4)ccc23)cc1 [compound 272, N-((2-azaspiro[3.3]heptan-6-yl)methyl)-2-(4-(methylcarbamoyl)phenyl) benzo[d]imidazo[2,1-b]thiazole-7-carboxamide]",− (− ≤3)
4,"CCN(CC)CCCNC(=O)c1ccc2c(c1)sc1nc(-c3ccc(OC)cc3)cn12 [compound 142, N-(3-(diethylamino)propyl)-2-(4-methoxyphenyl)benzo[d] imidazo[2,1-b]thiazole-7-carboxamide]",++ (++ ≥5 and <6)
5,"CNC(=O)c1ccc(-c2cn3c(n2)sc2cc(C(=O)N[C@H]4CCCN(C)C4)ccc23)cc1 [compound 207, (S)-2-(4-(methylcarbamoyl)phenyl)-N-(1-methylpiperidin-3-yl)benzo[d]imidazo[2,1-b]thiazole-7-carboxamide]",++ (++ ≥5 and <6)
6,"O=C(NCCCN1CCCCCC1)c1ccc2c(c1)sc1nc(-c3ccccc3)cn12 [compound 103, N-(3-(azepan-1-yl)propyl)-2-phenylbenzo[d]imidazo[2,1-b]thiazole-7-carboxamide]",+++ (+++ ≥6)
7,"CCN(CC)CCCNC(=O)c1ccc2c(c1)sc1nc(-c3ccccc3)cn12 [compound 107, N-(3-(diethylamino)propyl)-2-phenylbenzo[d]imidazo [2,1-b]thiazole-7-carboxamide]",++ (++ ≥5 and <6)
8,"CCN(CC)CCCNC(=O)c1ccc2c(c1)sc1nc(-c3ccc(CN)cc3F)nn12 [compound 388, 2-(4-(aminomethyl)-2-fluorophenyl)-N-(3-(diethylamino)propyl) benzo[4,5]thiazolo[3,2-b][1,2,4]triazole-6-carboxamide]",++ (++ ≥5 and <6)
9,"CNC(=O)c1ccc(-c2cn3c(n2)sc2cc(C(=O)NC[C@H](O)c4ccccc4)ccc23)cc1 [compound 256, (R)-N-(2-hydroxy-2-phenylethyl)-2-(4-(methylcarbamoyl)phenyl) benzo[d]imidazo[2,1-b]thiazole-7-carboxamide]",− (− ≤3)
10,"O=C(NCCCN1CCC(F)CC1)c1ccc2c(c1)sc1nc(-c3ccc(C4CCNC4)cc3F)cn12 (centres unmarked) [Compound 479, 2-(2-fluoro-4-(pyrrolidin-3-yl)phenyl)-N-(3-(4-fluoropiperidin-1-yl)propyl)benzo[d]imidazo[2,1-b]thiazole-7-carboxamide]",+++ (+++ ≥6)
11,"CCN(CC)CCCNC(=O)c1ccc2c(c1)sc1nc(-c3ccc(C(=O)N(C)C)cc3)cn12 [compound 154, N-(3-(diethylamino)propyl)-2-(4-(dimethylcarbamoyl)phenyl) benzo[d]imidazo[2,1-b]thiazole-7-carboxamide formate]",+ (+ >3 and <5)
12,"C#CCCC1(CCN2CC[C@H](CNC(=O)c3ccc4c(c3)sc3nc(-c5ccc(C)cc5)cn34)C2)N=N1 [compound 324, (R)-N-((1-(2-(3-(but-3-yn-1-yl)-3H-diazirin-3-yl)ethyl)pyrrolidin-3-yl)methyl)-2-(p-tolyl)benzo[d]imidazo[2,1-b]thiazole-7-carboxamide]",++ (++ ≥5 and <6)
13,"NCc1ccc(-c2cn3c(n2)sc2cc(C(=O)NCCCN4CCCCC4)ccc23)c(C(F)F)c1 [compound 371, 2-(4-(aminomethyl)-2-(difluoromethyl)phenyl)-N-(3-(piperidin-1-yl)propyl)benzo[d]imidazo [2,1-b]thiazole-7-carboxamide]",++ (++ ≥5 and <6)
14,"CNC(=O)c1ccc(-c2cn3c(n2)sc2cc(C(=O)NCC[C@H](C)N)ccc23)cc1 [compound 200, (S)-N-(3-aminobutyl)-2-(4-(methylcarbamoyl)phenyl) benzo[d]imidazo[2,1-b]thiazole-7-carboxamide]",+ (+ >3 and <5)
15,"CCN(CC)CCCNC(=O)c1ccc2c(c1)sc1nc(-c3ccc(CNC)cc3)cn12 [compound 288, N-(3-(diethylamino)propyl)-2-(4-((methylamino)methyl)phenyl) benzo[d]imidazo[2,1-b]thiazole-7-carboxamide]",+++ (+++ ≥6)
16,"Cc1cc(-c2cn3c(n2)sc2cc(C(=O)NCCCN4CCCCC4)ccc23)ccc1CN [compound 381, 2-(4-(aminomethyl)-3-methylphenyl)-N-(3-(piperidin-1-yl)propyl)benzo[d]imidazo [2,1-b]thiazole-7-carboxamide]",+++ (+++ ≥6)
